Data from US20200017496A1 (priority 2017, published 2020).
Like-named read-outs stand apart in the source and are kept apart here.

Experiments:
Assay in all cases: MIC of compounds alone and combined with antibacterials, broth microdilution (CLSI)
Assay type in all cases: cell-based
[1] = system: Providencia stuartii (PST) isolates
How it was run: (§1)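 Log-phase isolates at final 5·10^5 CFU/mL in cation-adjusted Mueller-Hinton broth, incubated 16-20 h at 35° C in ambient air. MIC read visually as lowest concentration preventing growth, for compound alone and for antibacterial at each compound concentration.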

[2] = system: Enterobacter cloacae (ECL) isolates; details: for MIC: Enterobacter cloacae, ATB alone
How it was run: as §1

[3] = system: Citrobacter koseri (CKR) isolates; details: for MIC: Citrobacter koseri, ATB alone, read-out: MIC
How it was run: as §1

[4] = system: Escherichia coli (ECO) isolates
How it was run: as §1

CC(C)(O/N=C(\C(=O)N[C@@H]1C(=O)N2C(C(=O)[O-])=C(C[n+]3ccccc3)CS[C@H]12)c1csc(N)n1)C(=O)O [CAZ, Ceftazidime]
256 µg/mL: MIC ([2]; strain ECL 190310 (AmpC))
4 µg/mL: MIC ATB in combination ([2]; ECL 2185D, AF1 @ 8 μg/mL) | MIC ATB in combination ([2]; ECL 190310, AF1 @ 4 μg/mL) | MIC ATB in combination ([2]; ECL 260253, AF1 @ 8 μg/mL) | MIC ATB in combination ([2]; ECL UFR60, AF1 @ 8 μg/mL) | MIC ATB in combination ([2]; ECL UFR84, AF1 @ 4 μg/mL) | MIC ATB in combination ([2]; strain ECL UFR198, antibacterial combined with AF1 @ 4 μg/mL) | MIC ATB in combination ([2]; strain ECL UFR198, antibacterial combined with AF1 @ 8 μg/mL) | MIC ATB in combination ([3]; CKO UFR150, AF1 @ 4 μg/mL) | MIC ATB in combination ([3]; CKO UFR150, AF1 @ 8 μg/mL) | MIC ([3]; strain CKO UFR150 (TEM-1, OXA-48))
<0.25 µg/mL: MIC ATB in combination ([2]; ECL 190408, AF1 @ 8 μg/mL) | MIC ATB in combination ([2]; ECL 260033, AF1 @ 8 μg/mL)
2 µg/mL: MIC ATB in combination ([2]; ECL 190310, AF1 @ 8 μg/mL) | MIC ATB in combination ([2]; ECL 200138, AF1 @ 8 μg/mL) | MIC ATB in combination ([2]; ECL NEM146383, AF1 @ 4 μg/mL) | MIC ATB in combination ([2]; ECL NEM146383, AF1 @ 8 μg/mL) | MIC ATB in combination ([2]; ECL P99, AF1 @ 4 μg/mL) | MIC ATB in combination ([2]; ECL UFR14, AF1 @ 4 μg/mL) | MIC ATB in combination ([2]; ECL UFR70, AF1 @ 4 μg/mL) | MIC ([2]; strain ECL UFR12 (CTX-M-9, OXA-48)) | MIC ATB in combination ([2]; strain ECL UFR196, antibacterial combined with AF1 @ 4 μg/mL)
8 µg/mL: MIC ATB in combination ([2]; ECL 200138, AF1 @ 4 μg/mL) | MIC ATB in combination ([2]; ECL 260033, AF1 @ 4 μg/mL)
1 µg/mL: MIC ATB in combination ([1]; PST UFR95, AF1 @ 4 μg/mL) | MIC ATB in combination ([1]; PST UFR235, AF1 @ 4 μg/mL) | MIC ([1]; Providencia stuartii, strain PST UFR94 (CTX-M-14), ATB alone, read-out: MIC) | MIC ATB in combination ([2]; ECL 260508, AF1 @ 4 μg/mL) | MIC ATB in combination ([2]; ECL UFR14, AF1 @ 8 μg/mL) | MIC ATB in combination ([2]; ECL UFR84, AF1 @ 8 μg/mL) | MIC ATB in combination ([2]; ECL UFR85, AF1 @ 4 μg/mL) | MIC ([2]; strain ECL UFR194 (OXA-48)) | MIC ATB in combination ([2]; strain ECL UFR195, antibacterial combined with AF1 @ 4 μg/mL) | MIC ATB in combination ([2]; strain ECL UFR197, antibacterial combined with AF1 @ 4 μg/mL) | MIC ([3]; strain CKO ROU (TEM-1, SHV-12, CTX-M-15, OXA-1, OXA-48))
<=0.25 μg/mL: MIC ATB in combination ([1]; PST UFR94, AF1 @ 8 μg/mL) | MIC ATB in combination ([1]; PST UFR235, AF1 @ 8 μg/mL) | MIC ATB in combination ([2]; ECL 190408, AF1 @ 4 μg/mL) | MIC ATB in combination ([2]; ECL 260508, AF1 @ 8 μg/mL) | MIC ATB in combination ([2]; ECL P99, AF1 @ 8 μg/mL) | MIC ATB in combination ([2]; ECL UFR12, AF1 @ 8 μg/mL) | MIC ATB in combination ([2]; ECL UFR85, AF1 @ 8 μg/mL) | MIC ATB in combination ([2]; ECL UFR194, AF1 @ 8 μg/mL) | MIC ATB in combination ([2]; ECL UFR200, AF1 @ 8 μg/mL) | MIC ATB in combination ([3]; CKO ROU, AF1 @ 4 μg/mL) | MIC ATB in combination ([3]; CKO ROU, AF1 @ 8 μg/mL) | MIC ATB in combination ([3]; CKO UFR149, AF1 @ 8 μg/mL) | MIC ATB in combination ([4]; ECO 4133, AF1 @ 4 μg/mL) | MIC ATB in combination ([4]; ECO 4133, AF1 @ 8 μg/mL) | MIC ATB in combination ([4]; ECO 5302, AF1 @ 4 μg/mL) | MIC ATB in combination ([4]; ECO 5302, AF1 @ 8 μg/mL) | MIC ATB in combination ([4]; ECO 131119, AF1 @ 4 μg/mL) | MIC ATB in combination ([4]; ECO 131119, AF1 @ 8 μg/mL) | MIC ATB in combination ([4]; ECO 180070, AF1 @ 4 μg/mL) | MIC ATB in combination ([4]; ECO 180070, AF1 @ 8 μg/mL) | MIC ATB in combination ([4]; ECO 190314, AF1 @ 8 μg/mL) | MIC ATB in combination ([4]; ECO 190317, AF1 @ 8 μg/mL) | MIC ATB in combination ([4]; ECO 190457, AF1 @ 4 μg/mL) | MIC ATB in combination ([4]; ECO 190457, AF1 @ 8 μg/mL) | MIC ATB in combination ([4]; ECO 190549, AF1 @ 4 μg/mL) | MIC ATB in combination ([4]; ECO 190549, AF1 @ 8 μg/mL) | MIC ATB in combination ([4]; ECO 200159, AF1 @ 4 μg/mL) | MIC ATB in combination ([4]; ECO 200159, AF1 @ 8 μg/mL) | MIC ATB in combination ([4]; ECO 200259, AF1 @ 4 μg/mL) | MIC ATB in combination ([4]; ECO 200259, AF1 @ 8 μg/mL) | MIC ATB in combination ([4]; ECO 200344, AF1 @ 4 μg/mL) | MIC ATB in combination ([4]; ECO 200344, AF1 @ 8 μg/mL) | MIC ATB in combination ([4]; ECO 260096, AF1 @ 4 μg/mL) | MIC ATB in combination ([4]; ECO 260096, AF1 @ 8 μg/mL) | MIC ATB in combination ([4]; ECO 260304, AF1 @ 4 μg/mL) | MIC ATB in combination ([4]; ECO 260304, AF1 @ 8 μg/mL) | MIC ATB in combination ([4]; ECO 260508, AF1 @ 4 μg/mL)
32 µg/mL: MIC ATB in combination ([2]; ECL 260323, AF1 @ 8 μg/mL)
0.5 µg/mL: MIC ATB in combination ([1]; PST UFR94, AF1 @ 4 μg/mL) | MIC ATB in combination ([1]; PST UFR95, AF1 @ 8 μg/mL) | MIC ATB in combination ([2]; ECL 200322, AF1 @ 4 μg/mL) | MIC ATB in combination ([2]; ECL 200322, AF1 @ 8 μg/mL) | MIC ATB in combination ([2]; ECL UFR12, AF1 @ 4 μg/mL) | MIC ATB in combination ([2]; ECL UFR13, AF1 @ 4 μg/mL) | MIC ATB in combination ([2]; ECL UFR13, AF1 @ 8 μg/mL) | MIC ATB in combination ([2]; ECL UFR70, AF1 @ 8 μg/mL) | MIC ATB in combination ([2]; ECL UFR194, AF1 @ 4 μg/mL) | MIC ATB in combination ([2]; ECL UFR200, AF1 @ 4 μg/mL) | MIC ATB in combination ([2]; strain ECL UFR195, antibacterial combined with AF1 @ 8 μg/mL) | MIC ATB in combination ([2]; strain ECL UFR196, antibacterial combined with AF1 @ 8 μg/mL) | MIC ATB in combination ([2]; strain ECL UFR197, antibacterial combined with AF1 @ 8 μg/mL) | MIC ATB in combination ([3]; CKO UFR149, AF1 @ 4 μg/mL) | MIC ATB in combination ([4]; ECO 190314, AF1 @ 4 μg/mL)
> 256 µg/mL: MIC ([2]; strain ECL UFR198 (TEM-1, SHV-12, CTX-M-15, DHA-1, OXA-1, OXA-48)) | MIC ([2]; strain ECL 200138 (AmpC)) | MIC ([2]; strain ECL 260323 (AmpC)) | MIC ([2]; strain ECL UFR13 (TEM-1, SHV-12, CTX-M-9, OXA-48)) | MIC ([2]; strain ECL UFR14 (TEM-1, SHV-12, CTX-M-15, DHA-1, OXA-1, OXA-48)) | MIC ([2]; strain ECL UFR196 (TEM-1, CTX-M-15, OXA-1, OXA-48)) | MIC ([2]; strain ECL UFR200 (TEM-1, SHV-12, KPC-2))
16 µg/mL: MIC ATB in combination ([2]; ECL 260253, AF1 @ 4 μg/mL) | MIC ATB in combination ([2]; ECL UFR60, AF1 @ 4 μg/mL)
512 µg/mL: MIC ([2]; strain ECL 260033 (AmpC))
